Test results: ChEMBL document CHEMBL4507319 (2021)

Key:
[1] = molecular target: D(4) dopamine receptor (Homo sapiens) (UniProt P21917); settings: Compound concentration 10.0 uM
[2] = molecular target: T1, Tyrosine-protein kinase receptor TYRO3 (Homo sapiens) (UniProt Q06418); settings: Compound concentration 1000.0 nM
T1 sequence (whole entry): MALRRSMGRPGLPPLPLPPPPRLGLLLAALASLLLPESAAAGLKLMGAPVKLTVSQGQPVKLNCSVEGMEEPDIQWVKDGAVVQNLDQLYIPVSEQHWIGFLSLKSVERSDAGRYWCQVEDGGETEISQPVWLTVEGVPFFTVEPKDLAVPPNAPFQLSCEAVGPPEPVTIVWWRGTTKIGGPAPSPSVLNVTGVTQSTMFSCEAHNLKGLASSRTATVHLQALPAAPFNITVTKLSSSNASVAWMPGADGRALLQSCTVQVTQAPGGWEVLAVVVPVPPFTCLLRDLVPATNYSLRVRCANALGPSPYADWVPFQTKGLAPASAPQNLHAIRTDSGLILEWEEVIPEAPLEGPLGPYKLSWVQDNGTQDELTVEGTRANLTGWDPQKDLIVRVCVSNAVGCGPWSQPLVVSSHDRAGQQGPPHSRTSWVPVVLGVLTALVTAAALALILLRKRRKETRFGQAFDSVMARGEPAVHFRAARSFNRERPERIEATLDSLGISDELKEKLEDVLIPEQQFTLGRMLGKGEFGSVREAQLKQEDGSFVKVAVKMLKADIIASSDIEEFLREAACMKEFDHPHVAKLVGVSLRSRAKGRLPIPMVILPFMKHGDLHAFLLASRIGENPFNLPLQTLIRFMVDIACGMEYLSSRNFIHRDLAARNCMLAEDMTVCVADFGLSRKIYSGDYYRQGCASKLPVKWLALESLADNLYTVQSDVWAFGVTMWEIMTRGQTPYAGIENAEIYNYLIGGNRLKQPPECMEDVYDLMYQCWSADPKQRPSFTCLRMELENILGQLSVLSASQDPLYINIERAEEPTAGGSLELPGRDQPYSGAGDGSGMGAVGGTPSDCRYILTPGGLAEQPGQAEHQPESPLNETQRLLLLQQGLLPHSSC

[3] = molecular target: T2, Phosphatidylinositol 3-kinase C2 domain-containing subunit gamma (Homo sapiens) (UniProt O75747); settings: Compound concentration 1000.0 nM
T2 sequence (whole entry): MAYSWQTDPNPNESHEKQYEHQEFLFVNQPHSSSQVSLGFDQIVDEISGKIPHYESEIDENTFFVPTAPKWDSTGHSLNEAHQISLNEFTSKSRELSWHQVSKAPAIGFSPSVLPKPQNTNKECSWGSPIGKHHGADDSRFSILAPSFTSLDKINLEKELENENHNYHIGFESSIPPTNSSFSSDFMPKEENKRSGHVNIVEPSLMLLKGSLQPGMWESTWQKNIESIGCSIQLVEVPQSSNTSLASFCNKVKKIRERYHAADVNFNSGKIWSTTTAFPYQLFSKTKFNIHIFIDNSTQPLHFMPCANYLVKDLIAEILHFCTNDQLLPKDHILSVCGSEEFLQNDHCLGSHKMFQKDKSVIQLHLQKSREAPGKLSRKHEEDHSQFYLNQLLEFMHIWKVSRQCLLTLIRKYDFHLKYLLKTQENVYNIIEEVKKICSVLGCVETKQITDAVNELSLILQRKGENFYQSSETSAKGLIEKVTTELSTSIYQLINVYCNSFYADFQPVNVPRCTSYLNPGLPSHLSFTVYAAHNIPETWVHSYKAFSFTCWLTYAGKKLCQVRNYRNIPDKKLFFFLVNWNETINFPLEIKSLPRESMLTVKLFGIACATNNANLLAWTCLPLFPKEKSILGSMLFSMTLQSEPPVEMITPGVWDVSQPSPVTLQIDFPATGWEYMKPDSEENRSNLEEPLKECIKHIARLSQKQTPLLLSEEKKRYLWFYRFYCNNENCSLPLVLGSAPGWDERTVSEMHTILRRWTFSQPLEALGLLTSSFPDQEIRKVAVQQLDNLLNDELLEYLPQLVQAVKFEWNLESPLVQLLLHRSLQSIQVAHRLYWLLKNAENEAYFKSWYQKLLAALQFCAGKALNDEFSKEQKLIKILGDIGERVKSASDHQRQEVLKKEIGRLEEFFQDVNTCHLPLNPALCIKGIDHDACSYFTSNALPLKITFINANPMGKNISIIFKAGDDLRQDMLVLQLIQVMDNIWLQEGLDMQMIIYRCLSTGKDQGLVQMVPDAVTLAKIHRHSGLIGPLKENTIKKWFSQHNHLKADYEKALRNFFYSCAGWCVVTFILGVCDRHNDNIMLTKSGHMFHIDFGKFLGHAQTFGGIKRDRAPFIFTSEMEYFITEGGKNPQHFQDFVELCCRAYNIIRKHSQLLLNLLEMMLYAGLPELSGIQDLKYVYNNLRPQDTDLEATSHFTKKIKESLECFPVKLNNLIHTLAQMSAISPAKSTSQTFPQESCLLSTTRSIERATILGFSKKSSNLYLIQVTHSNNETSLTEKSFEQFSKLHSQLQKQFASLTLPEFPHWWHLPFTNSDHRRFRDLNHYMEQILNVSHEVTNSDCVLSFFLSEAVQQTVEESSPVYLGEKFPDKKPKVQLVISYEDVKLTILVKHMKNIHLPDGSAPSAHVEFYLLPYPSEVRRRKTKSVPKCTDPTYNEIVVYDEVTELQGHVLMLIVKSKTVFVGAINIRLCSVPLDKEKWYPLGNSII

[4] = molecular target: T3, Serine/threonine-protein kinase 17A (Homo sapiens) (UniProt Q9UEE5); settings: Compound concentration 1000.0 nM
T3 sequence (whole entry): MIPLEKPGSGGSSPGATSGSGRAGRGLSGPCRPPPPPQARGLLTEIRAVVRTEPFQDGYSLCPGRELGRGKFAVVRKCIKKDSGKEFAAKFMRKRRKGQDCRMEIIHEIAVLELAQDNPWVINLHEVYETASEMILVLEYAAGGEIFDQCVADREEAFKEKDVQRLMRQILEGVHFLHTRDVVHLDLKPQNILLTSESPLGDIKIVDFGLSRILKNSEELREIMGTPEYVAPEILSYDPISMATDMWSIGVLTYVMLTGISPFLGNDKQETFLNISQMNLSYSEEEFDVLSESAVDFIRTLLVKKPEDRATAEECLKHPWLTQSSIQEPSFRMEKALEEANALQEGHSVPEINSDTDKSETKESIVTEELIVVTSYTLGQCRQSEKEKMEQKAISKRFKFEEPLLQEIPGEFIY

[5] = molecular target: Mitogen-activated protein kinase kinase kinase 4 (Homo sapiens) (UniProt Q9Y6R4); settings: Compound concentration 1000.0 nM
[6] = molecular target: Tyrosine-protein kinase JAK2 (Homo sapiens) (UniProt O60674); settings: Compound concentration 1000.0 nM
[7] = molecular target: Dual specificity tyrosine-phosphorylation-regulated kinase 1B (Homo sapiens) (UniProt Q9Y463); settings: Compound concentration 1000.0 nM
Sequence of Dual specificity tyrosine-phosphorylation-regulated kinase 1B (Homo sapiens) (Q9Y463 whole entry, looked up): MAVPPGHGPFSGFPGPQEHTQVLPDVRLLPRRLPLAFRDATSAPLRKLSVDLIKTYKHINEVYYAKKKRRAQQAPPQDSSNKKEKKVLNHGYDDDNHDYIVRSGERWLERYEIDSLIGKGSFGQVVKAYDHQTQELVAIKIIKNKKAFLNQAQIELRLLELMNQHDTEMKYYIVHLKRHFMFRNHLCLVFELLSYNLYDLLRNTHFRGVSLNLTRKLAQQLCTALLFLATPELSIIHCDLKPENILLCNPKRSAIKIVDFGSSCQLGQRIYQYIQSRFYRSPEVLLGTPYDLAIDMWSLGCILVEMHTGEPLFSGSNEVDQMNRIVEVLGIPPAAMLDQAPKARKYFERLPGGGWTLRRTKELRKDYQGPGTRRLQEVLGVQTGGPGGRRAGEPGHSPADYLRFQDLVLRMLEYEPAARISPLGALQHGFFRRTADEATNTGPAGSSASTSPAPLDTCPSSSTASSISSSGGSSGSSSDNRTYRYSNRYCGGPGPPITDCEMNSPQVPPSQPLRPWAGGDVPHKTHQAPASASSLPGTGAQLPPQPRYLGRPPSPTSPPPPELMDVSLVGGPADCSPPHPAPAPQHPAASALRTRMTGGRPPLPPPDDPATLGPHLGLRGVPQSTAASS

Sequence of D(4) dopamine receptor (Homo sapiens) (P21917 whole entry): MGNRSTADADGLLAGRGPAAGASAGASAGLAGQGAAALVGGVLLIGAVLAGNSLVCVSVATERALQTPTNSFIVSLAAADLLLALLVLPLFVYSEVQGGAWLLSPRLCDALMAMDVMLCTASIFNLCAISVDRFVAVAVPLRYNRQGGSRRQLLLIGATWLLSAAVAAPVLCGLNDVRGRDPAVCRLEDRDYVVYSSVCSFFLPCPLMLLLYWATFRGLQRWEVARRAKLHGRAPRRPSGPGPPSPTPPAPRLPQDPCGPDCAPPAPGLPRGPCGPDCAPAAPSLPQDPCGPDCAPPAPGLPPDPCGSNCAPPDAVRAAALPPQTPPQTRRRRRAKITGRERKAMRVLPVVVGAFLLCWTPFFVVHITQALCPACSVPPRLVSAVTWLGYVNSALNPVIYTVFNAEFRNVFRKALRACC
Sequence of Tyrosine-protein kinase JAK2 (Homo sapiens) (O60674 whole entry): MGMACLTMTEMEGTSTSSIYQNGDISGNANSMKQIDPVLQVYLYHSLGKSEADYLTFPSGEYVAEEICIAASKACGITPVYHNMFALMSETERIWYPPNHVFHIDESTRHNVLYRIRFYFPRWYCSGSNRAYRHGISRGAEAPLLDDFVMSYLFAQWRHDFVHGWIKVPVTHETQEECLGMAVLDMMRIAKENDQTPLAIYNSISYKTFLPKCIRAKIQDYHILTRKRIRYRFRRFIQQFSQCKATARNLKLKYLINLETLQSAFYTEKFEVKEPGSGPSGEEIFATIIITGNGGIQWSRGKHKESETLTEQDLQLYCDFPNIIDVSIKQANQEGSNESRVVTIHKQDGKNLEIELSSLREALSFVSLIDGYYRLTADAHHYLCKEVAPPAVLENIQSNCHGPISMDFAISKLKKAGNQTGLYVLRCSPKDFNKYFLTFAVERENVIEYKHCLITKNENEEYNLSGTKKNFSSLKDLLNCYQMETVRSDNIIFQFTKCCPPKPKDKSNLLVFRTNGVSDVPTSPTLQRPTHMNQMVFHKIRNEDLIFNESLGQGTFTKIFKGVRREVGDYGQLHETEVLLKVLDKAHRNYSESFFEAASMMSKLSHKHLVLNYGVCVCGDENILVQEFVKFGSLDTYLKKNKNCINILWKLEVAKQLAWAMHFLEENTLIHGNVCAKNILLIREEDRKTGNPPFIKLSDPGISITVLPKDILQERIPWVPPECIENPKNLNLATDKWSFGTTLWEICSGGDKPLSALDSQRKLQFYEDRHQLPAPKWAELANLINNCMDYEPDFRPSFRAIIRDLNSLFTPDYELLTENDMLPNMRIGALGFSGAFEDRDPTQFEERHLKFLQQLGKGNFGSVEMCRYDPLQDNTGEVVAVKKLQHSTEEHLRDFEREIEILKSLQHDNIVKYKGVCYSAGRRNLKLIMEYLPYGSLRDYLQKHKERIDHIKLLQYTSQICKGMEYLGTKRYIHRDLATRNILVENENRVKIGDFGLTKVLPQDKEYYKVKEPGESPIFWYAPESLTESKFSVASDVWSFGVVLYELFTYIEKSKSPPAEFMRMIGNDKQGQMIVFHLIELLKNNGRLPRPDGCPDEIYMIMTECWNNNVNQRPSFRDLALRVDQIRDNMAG
Sequence of Mitogen-activated protein kinase kinase kinase 4 (Homo sapiens) (Q9Y6R4 whole entry): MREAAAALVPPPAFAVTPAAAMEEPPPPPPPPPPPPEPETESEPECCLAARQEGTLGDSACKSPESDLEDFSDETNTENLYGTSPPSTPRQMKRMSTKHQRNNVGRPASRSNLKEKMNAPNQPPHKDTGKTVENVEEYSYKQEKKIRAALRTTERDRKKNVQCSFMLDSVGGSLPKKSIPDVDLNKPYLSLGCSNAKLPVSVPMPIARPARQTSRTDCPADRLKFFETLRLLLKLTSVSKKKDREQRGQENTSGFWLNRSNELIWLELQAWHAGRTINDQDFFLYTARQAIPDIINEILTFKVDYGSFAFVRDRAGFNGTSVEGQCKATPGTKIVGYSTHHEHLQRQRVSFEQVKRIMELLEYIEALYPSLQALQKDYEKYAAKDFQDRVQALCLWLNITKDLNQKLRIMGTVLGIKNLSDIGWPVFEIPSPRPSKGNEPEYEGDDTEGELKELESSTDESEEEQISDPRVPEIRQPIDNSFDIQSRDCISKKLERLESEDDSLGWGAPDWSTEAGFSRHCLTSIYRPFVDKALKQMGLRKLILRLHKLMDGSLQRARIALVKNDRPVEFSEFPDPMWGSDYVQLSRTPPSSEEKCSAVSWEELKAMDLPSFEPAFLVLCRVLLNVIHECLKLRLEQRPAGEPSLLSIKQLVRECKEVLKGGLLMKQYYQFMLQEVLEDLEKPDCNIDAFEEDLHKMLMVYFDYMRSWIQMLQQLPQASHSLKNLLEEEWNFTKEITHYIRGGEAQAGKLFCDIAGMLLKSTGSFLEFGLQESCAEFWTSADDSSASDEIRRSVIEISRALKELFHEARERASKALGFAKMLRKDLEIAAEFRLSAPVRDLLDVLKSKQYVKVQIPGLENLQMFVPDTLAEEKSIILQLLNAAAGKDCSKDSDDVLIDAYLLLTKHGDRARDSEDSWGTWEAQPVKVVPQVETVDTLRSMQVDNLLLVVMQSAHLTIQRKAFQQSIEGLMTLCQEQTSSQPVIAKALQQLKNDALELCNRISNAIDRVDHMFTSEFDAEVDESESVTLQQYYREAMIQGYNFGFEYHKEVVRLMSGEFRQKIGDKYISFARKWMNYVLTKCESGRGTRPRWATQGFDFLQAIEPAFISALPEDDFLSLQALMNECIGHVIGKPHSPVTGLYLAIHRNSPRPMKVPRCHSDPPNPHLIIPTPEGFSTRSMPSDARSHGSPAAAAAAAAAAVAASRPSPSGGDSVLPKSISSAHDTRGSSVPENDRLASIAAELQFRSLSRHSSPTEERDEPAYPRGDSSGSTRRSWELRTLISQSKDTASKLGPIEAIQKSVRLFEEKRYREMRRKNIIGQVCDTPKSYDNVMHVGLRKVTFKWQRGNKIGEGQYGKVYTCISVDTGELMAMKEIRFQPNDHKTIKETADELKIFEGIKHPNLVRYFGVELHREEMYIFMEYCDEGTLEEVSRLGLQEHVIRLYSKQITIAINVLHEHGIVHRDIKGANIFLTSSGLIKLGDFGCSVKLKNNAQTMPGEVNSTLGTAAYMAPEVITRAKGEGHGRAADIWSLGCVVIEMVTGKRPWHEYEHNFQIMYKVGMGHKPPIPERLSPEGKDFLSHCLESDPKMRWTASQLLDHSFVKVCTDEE

CCc1ccccc1C(=O)Nc1n[nH]c2c(C)c(F)c(C3C(C#N)=C(C)N(C)C(C)=C3C#N)cc12 [BAY-3827]
inactive: inhibition [1] -0.18% | residual activity [2] 100% | residual activity [3] 95% | residual activity [4] 89% | residual activity [5] 72% | residual activity [6] 100% | residual activity [7] 100%

CC1=C(C#N)C(c2ccc3c(c2)c(NC(=O)c2ccccc2C)nn3C)C(C#N)=C(C)N1 [BAY-974]
inactive: inhibition [1] 0.21% | residual activity [2] 100% | residual activity [3] 61% | residual activity [4] 82% | residual activity [5] 84% | residual activity [6] 77% | residual activity [7] 63%
